# Assay results: patent publication US20070172470A1, “Phosphatase regulation of nucleic acid transcription” (The Regents of the University of California, priority 2003, published 2007)
# Where two headings read alike, the source gives them in different places.
# Target: SCP1 (Homo sapiens, UniProt Q9GZU7)
# Experiment: PNθP phosphatase assay in the presence of phosphatase inhibitors
# Assay type: biochemical
# SCP1, sequence (Q9GZU7 other isoform, or with tags, fused parts or gaps): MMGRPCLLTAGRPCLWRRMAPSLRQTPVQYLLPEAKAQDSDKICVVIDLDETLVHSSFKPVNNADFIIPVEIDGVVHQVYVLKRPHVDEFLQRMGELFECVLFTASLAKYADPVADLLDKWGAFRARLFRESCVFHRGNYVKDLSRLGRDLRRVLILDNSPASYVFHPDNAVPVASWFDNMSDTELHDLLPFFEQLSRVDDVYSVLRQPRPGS
Molecule,"SCP1 phosphatase activity in the presence of phosphatase inhibitor (GST-SCP1 214 (40 pmol), 20 mM PNθP, 1-10 μM inhibitor)",SCP1 phosphatase activity in the presence of phosphatase inhibitor
C=C1[C@@H](O)[C@@H]2O[C@]3(CC[C@H](/C=C/[C@@H](C)[C@@H]4CC(C)=C[C@@]5(O[C@H](C[C@@](C)(O)C(=O)O)CC[C@H]5O)O4)O3)CC[C@H]2O[C@@H]1[C@@H](O)C[C@H](C)[C@H]1O[C@@]2(CCCCO2)CC[C@H]1C [okadaic acid],resistant,
microcystin,,resistant
